Measured values as given in BindingDB's records for doi:10.1074/jbc.M113.453423 (Université Montpellier 1, 2013).
Where a SMILES comes first, the peptide text is derived from it. [ ]: non-standard residue; d: D form.

Assays:
Assay in all cases: GHS Ligand Binding Assay
[1] = biological target: Dimer of Growth hormone secretagogue receptor type 1 (Homo sapiens, UniProt Q92847)
Procedure: (§1) Titration experimentswere carried out with protein concentrations in the 10 nM protein concentration range and increasing ligand concentrations. […] Buffer contributions were systematically subtracted.

[2] = biological target: Growth hormone secretagogue receptor type 1 (Homo sapiens, UniProt Q92847)
Procedure: as §1

[3] = biological target: Growth hormone secretagogue receptor type 1/Isoform 1B of Growth hormone secretagogue receptor type 1 (1B) (Homo sapiens, UniProt Q92847)
Procedure: as §1

Growth hormone secretagogue receptor type 1, sequence (Q92847 whole entry): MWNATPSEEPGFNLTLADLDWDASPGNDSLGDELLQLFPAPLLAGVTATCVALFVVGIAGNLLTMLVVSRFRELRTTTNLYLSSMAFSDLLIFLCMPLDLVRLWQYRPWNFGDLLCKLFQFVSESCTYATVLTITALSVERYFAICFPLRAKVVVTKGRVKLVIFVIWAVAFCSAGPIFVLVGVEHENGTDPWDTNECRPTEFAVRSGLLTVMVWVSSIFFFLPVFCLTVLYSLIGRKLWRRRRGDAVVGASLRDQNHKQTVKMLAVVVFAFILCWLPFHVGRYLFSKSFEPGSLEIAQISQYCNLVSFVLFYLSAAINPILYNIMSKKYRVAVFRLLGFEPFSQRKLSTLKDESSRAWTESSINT
Dimer of Growth hormone secretagogue receptor type 1, sequence (Q92847 whole entry): as above
Growth hormone secretagogue receptor type 1/Isoform 1B of Growth hormone secretagogue receptor type 1 (1B), sequence (Q92847 whole entry, canonical isoform): as the sequence (Q92847 whole entry) above
Growth hormone secretagogue receptor type 1/Isoform 1B of Growth hormone secretagogue receptor type 1 (1B), sequence (Q92847 as listed by the source): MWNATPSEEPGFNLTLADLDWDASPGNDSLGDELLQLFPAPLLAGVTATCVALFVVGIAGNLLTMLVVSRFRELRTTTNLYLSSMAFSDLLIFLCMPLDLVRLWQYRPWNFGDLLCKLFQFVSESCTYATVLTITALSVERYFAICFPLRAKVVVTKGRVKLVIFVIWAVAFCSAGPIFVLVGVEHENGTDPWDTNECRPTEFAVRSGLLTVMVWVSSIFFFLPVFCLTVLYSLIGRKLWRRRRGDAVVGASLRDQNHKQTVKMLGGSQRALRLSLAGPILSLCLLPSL

Row | Ki [1] | Ki [2] | Ki [3] | SMILES
1 | 0.286 µM | 0.294 µM | 0.292 µM | CC(C)C[C@H](NC(=O)[C@H](CC(C)C)NC(=O)[C@@H](Cc1c[nH]c2ccccc12)NC(=O)[C@H](Cc1ccccc1)NC(=O)[C@@H](Cc1c[nH]c2ccccc12)NC(=O)[C@H](CCC(N)=O)NC(=O)[C@@H](Cc1c[nH]c2ccccc12)NC(=O)[C@@H]1CCCN1C(=O)[C@H](CCCCN)NC(=O)[C@@H]1CCCN1C(=O)[C@H](N)CCCN=C(N)N)C(N)=O [Substance P [DArg1, DTrp5,7,9,  Leu11]] (H-[dR]PKP[dW]Q[dW]F[dW]LL-NH2)
2 | 0.0099 µM | 0.0092 µM | 0.0193 µM | COc1ccc(Cn2c(CCc3ccccc3)nnc2C(Cc2c[nH]c3ccccc23)NC(=O)c2ccccn2)c(OC)c1 (configuration not stated) [JMV 3002]
3 |  | 0.0083 µM |  | COc1ccc(Cn2c(CCc3c[nH]c4ccccc34)nnc2C(Cc2c[nH]c3ccccc23)NC(=O)c2ccccn2)c(OC)c1 (configuration not stated) [JMV 3011]
